In patent publication US8618101B2, “N-((1R,2S,5R)-5-(tert-butylamino)-2-((S)-3-(7-tert-butylpyrazolo[1,5-a][1,3,5]triazin-4-ylamino)-2-oxopyrrolidin-1-yl)cyclohexyl)acetamide, a dual modulator of chemokine receptor activity, crystalline forms and processes” (Bristol-Myers Squibb Company, priority 2009, dated 2013):

Key:
CCR-2 [1] = target: T1, CCR-2 (Homo sapiens, UniProt P41597); assay: CCR-2 whole blood integrin (CD11b) upregulation; format: cell-based
Protocol: A CCR-2-dependent CD11b upregulation assay was established with human whole blood. Whole blood (100 μl) was pre-incubated with a concentration range of Example 1 at 37° C. for 10 minutes. […] The reactions were incubated for 30 minutes at 37° C. […] The samples were then incubated for 30 minutes on ice in the dark. […] Data acquisition and analysis were performed using CellQuestPro software. A sequential gating strategy was used to analyze the CD14^high CD11b^+ monocyte population.

[2] = Parallel Artificial Membrane Permeability Assay (PAMPA); format: in vitro ADME; details: pH 7.4
Description: The Parallel Artificial Membrane Permeability Assay (PAMPA) consists of a specially formulated lecithin-based lipid combination referred to as the gastrointestinal tract (GIT) lipid. The GIT lipid is used to form a membrane in a sandwich plate assembly similar to that used in the Caco-2 assays. The GIT lipid closely resembles in vivo membrane composition and performance as measured by standard compounds that are known to be passively absorbed in humans. […] The rate of passage of compounds through the PAMPA membrane is used to determine a permeability coefficient (Pc), which can be related to the in vivo passive permeability of the compound.
The permeability coefficient (Pc) of a particular compound is examined in a pH-dependent setting with apical and basolateral pH of 7.4. All experiments are conducted in triplicate determinations.
The PAMPA assay plate (donor side and acceptor side) was combined and allowed to incubate at room temperature for 4 hours. […] The donor, acceptor, reference, and blank plates were read in the SPECTRAMAX® UV plate reader. Data was captured by the pION software, which analyzes the spectra and generates Pc values.

CCR-5 [3] = target: T2, CCR-5 (Homo sapiens, UniProt P51681); assay: T cell CCR-5 binding assay, 125I-MIP-1β tracer; details: human peripheral T cells
T2 construct: human peripheral T cells was used as a source of CCR-5; endogenous in cells; host or cells: human peripheral T cells from donors pre-screened for high CCR-5 expression
Description: The procedure used for T cell CCR-5 binding assay was similar to those for hPBMC CCR-2 binding assay except that human peripheral T cells was used as a source of CCR-5 (see below) and ^125I-MIP-1β as a tracer (Amersham).
Therefore, blood donors were pre-screened for high T-cell expression of CCR-5. hPBMCs were first isolated from human whole blood by standard protocol with Ficoll-Hypaque. Flow cytometric analysis was then used to measure CCR-5 expression on T cells following staining with anti-CCR-5 antibody plus anti-CD4 antibody or anti-CD8 antibody. Those blood donors in which >5% peripheral T cells (CD4^+ and CD8^+) express CCR-5 were requested to provide blood again for isolation of PBMCs and, subsequently, of T cells using a standard E-rosetting technique which relies on the unique ability of T cells to bind to sheep red blood cells (RBCs).

hERG [4] = target: T3, hERG (Homo sapiens, UniProt Q12809); assay: hERG patch clamp; format: cell-based; details: read-out: hERG patch clamp (% Inhib.)
T3 construct: expressed in transfected cells; host or cells: HEK293
Protocol: Whole-cell patch-clamp was used to directly measure hERG currents in HEK-293 cells stably expressing the cloned hERG potassium channel α subunit. […] Repetitive test pulses (0.05 Hz) were applied from a holding potential of −80 mV to +20 mV for 2 seconds and tail currents were elicited following the test pulses by stepping the voltage to −65 mV. The effects from the compound were calculated by measuring inhibition of peak tail current

CCR-2 [5] = target: T1, CCR-2; assay: CCR-2 GTP-γS exchange, HT1080 membranes; format: biochemical; details: 1 nM MCP-1
Protocol: Each reaction (200 μL) contained 20 mM Na-HEPES, 10 mM MgCl2, 50 mM NaCl, 0.1% BSA (Sigma), 1% DMSO, and 10 μM GDP (pH 7.4). […] Reactions were incubated for 90 minutes hour at room temperature and [^35S]-GTPγS/Gαi complexes were collected on a Millipore MAFC 96 well filter plate. […] Data were analyzed using the ligand binding software from Graphpad Prism 4.

hERG [6] = target: T3, hERG; assay: hERG Flux (Tl+ flux, FLIPR); format: cell-based; details: HEK293 cells expressing hERG
Protocol: HEK293 cells stably-expressing hERG channels were grown (37° C., 5% CO2) in Dulbecco's Modified Eagle's Media supplemented with 10% Sigma fetal bovine serum, non-essential amino acids, 2 mM L-glutamine and 500 μg/ml G418, at incubator. Cell dissociation buffer was used to extract the cells from flasks, which were then plated into 384-well CORNING® poly-D-lysine coated black/clear plates at a density of 2×10^4 cells per well (20 μl) in 10% serum media, and incubated for 15-24 hours at 37° C. in a 5% CO2 incubator until a confluent monolayer of cells was obtained. […]
The test compound was diluted to 10 mM DMSO in 60 μl. […] Assay-ready plates were generated by stamping 2.5 μl from the DMSO serially diluted plate, which was prepared on the Velocity 11 BIOCEL®. Aqueous plates were created by adding 48 μl of EP buffer and then were diluted 30-45 minutes before the assay was read on the FLIPR®. […] Assay-ready aqueous plates were prepared and diluted on a CyBio liquid handler.
Cells loaded with dye were read on the FLIPR®384 (Molecular Devices, Sunnyvale, Calif.), which excites the dye using the 488 nm line of an argon laser. […]
The dynamic range of the assay was determined from blanks and totals wells. […] Data were analyzed by fitting maximum amplitudes of change in fluorescence for Tl^+ flux for a given condition of test compound.

CCR-5 [7] = target: T2, CCR-5; assay: CCR-5 calcium mobilization, HT1080/CCR-5 cells; format: cell-based; details: MIP-1β 50 nM, read-out: CCR-5 ^2+ Flux IC50

T1 sequence (P41597 whole entry): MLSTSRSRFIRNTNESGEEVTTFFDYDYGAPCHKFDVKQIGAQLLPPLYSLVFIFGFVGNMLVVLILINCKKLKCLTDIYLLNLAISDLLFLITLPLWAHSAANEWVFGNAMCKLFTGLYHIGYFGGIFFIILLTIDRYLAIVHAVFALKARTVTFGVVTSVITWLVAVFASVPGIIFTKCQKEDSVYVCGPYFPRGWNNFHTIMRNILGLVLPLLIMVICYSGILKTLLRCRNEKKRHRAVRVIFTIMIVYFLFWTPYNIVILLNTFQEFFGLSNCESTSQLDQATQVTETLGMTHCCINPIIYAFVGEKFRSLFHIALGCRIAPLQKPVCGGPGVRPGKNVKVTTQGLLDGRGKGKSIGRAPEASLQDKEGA
T3 sequence (Q12809 whole entry): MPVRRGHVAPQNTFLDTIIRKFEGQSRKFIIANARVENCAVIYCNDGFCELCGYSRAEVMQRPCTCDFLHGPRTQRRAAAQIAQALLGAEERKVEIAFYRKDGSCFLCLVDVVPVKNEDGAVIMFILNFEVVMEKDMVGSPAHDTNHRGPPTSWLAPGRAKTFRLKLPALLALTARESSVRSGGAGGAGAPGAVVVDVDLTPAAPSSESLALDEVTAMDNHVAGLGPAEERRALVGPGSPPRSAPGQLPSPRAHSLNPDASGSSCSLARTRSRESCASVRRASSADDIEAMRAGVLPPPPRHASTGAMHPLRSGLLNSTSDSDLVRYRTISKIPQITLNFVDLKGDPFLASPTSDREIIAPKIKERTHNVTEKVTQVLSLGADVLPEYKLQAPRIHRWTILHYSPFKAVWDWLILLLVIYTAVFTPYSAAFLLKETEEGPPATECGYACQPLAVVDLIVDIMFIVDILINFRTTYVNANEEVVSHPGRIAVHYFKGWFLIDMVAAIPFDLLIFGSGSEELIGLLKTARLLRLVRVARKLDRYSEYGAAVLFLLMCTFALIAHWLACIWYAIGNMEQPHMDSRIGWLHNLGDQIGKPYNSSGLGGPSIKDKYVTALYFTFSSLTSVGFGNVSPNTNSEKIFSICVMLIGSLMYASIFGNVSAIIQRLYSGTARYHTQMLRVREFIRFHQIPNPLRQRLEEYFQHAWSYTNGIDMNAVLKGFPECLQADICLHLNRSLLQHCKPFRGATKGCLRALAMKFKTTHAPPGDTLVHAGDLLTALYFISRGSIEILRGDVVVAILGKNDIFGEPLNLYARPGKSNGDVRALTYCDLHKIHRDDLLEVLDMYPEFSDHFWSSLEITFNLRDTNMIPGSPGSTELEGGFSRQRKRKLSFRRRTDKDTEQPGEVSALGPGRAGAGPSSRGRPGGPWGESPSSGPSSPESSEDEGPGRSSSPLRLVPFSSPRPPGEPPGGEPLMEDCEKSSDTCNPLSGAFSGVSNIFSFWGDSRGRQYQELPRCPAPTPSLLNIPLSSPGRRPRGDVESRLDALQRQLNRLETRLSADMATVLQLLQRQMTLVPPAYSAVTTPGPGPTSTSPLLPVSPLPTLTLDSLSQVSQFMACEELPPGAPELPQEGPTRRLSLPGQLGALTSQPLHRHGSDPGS
T2 sequence (P51681 whole entry): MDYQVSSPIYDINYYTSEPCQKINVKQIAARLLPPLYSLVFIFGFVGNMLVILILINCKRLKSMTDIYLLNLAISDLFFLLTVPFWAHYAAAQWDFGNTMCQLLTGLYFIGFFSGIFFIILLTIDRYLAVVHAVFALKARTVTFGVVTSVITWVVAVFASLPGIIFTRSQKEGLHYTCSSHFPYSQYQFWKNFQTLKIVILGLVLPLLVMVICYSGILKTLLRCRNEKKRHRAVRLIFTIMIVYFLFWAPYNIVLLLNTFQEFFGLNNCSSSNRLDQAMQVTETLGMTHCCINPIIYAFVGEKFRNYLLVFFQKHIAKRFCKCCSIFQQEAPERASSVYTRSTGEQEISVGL

CC(=O)N[C@@H]1C[C@H](NC(C)(C)C)CC[C@@H]1N1CC[C@H](Nc2ncnc3cc(C(C)(C)C)nn23)C1=O [Example 1, N-((1R,2 S,5R)-5-(tert-Butylamino)-2-((S)-3-(7-tert-butylpyrazolo[1,5-a][1,3,5]triazin-4-ylamino)-2-oxopyrrolidin-1-yl)cyclohexyl)acetamide]
activity against CCR-2 versus CCR-5 (Table 5) (CCR-2 [1]; comparison of CCR-2 and CCR-5 CD11b IC50): equipotent against CCR-2 and CCR-5
IC50 (CCR-2 [1]; human whole blood, MCP-1 10 nM): 4.8 nM
Papp at 4 h, 100 µM [2]: 33.6 ×10⁻⁶ cm/s
IC50 (CCR-5 [3]): 3.6 ± 1.8 nM
inhibition at 10000 nM (hERG [4]; pH 7.4, 10,000 nM): 1.2%
inhibition at 30000 nM (hERG [4]; pH 7.4, 30,000 nM): 9.2%
IC50 (CCR-2 [5]): 3.5 ± 1.9 nM
IC50 (hERG [6]): > 80000 nM
IC50 (CCR-5 [7]): 2 ± 1.4 nM
